Values quoted from earlier work in patent US20060178351A1, “Treatment of immune-mediated disorders with active vitamin D compounds alone or in combination with other therapeutic agents” (Novacea, Inc., priority 2003, published 2006).

Conditions: relative to an equal dose of calcitriol

C=C1/C(=C\C=C2/CCC[C@]3(C)C([C@H](C)CC#CC(C)(C)O)=CC[C@@H]23)C[C@@H](O)C[C@@H]1O [Ro23-7553]
Hypercalcemic effect compared to calcitriol: reduced hypercalcemic effect
